The values that follow are results of earlier work, collected in US12637369B2, “Method for selectively removing perfluorinated compounds with electrooxidation” (SK hynix Inc., priority 2021, dated 2026).

Each structure is given as a SMILES string. Values after ≈ are worked out from the molar mass of the structure shown.

Test in data set [1]: not given
The source holds these as a separate data set.

A word on the pKa: it is the negative logarithm of the acid dissociation constant. Consider `O=S(=O)(O)C(F)(F)C(F)(F)C(F)(F)C(F)(F)C(F)(F)C(F)(F)C(F)(F)C(F)(F)F` [PFOS, Perfluorooctane sulfonic acid], for which the pKa is −3.27. Besides, the Solubility in water in data set [1] was 570 µg/mL (≈ 1.14 mM).

As to `O=C(O)C(F)(F)C(F)(F)C(F)(F)C(F)(F)C(F)(F)C(F)(F)C(F)(F)C(F)(F)F` [PFNA, Perfluorononanoic acid], the pKa is given as 2-3. Moreover, the Solubility in water in data set [1] is 9500 µg/mL (≈ 20.5 mM).

For the compound `O=S(=O)(O)C(F)(F)C(F)(F)C(F)(F)C(F)(F)F` [PFBS, Perfluorobutane sulfonic acid], the pKa is −3.94. In addition, the Solubility in water entry in data set [1] is “Very high”. For the compound `O=C(O)C(F)(F)C(F)(F)C(F)(F)C(F)(F)C(F)(F)C(F)(F)C(F)(F)F` [PFOA, Perfluorooctanoic acid], the Solubility in water in data set [1] was 3400 µg/mL (≈ 8.21 mM).
